According to patent publication US10513523B2, “Imidazopyrazines and pyrazolopyrimidines and their use as AMPA receptor modulators” (Janssen Pharmaceutica NV, priority 2015, dated 2019):

target: GluA1o-γ8 (GRIA1o-CACNG8 fusion construct; TARP γ8 dependent AMPA receptor) (Homo sapiens (Human), UniProt P42261+Q8WXS5); experiment: Calcium flux assay (FLIPR), inhibition of glutamate response of GluA1o-γ8 channel; assay type: cell-based; conditions: HEK293 cells stably expressing GRIA1o-CACNG8 fusion; 15 μM glutamate; pIC50 = negative log of IC50 in molar; read-out: GluR1-γ8 (pIC50) (converted)
Summary of the method: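 Potency is the midpoint of a four-parameter logistic fit to control-normalized FLIPR calcium responses elicited by 15 μM glutamate. Stable HEK293 cells carried a fused GluA1o-γ8 construct and were preincubated with compound and calcium dye in pH 7.4 HEPES buffer.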

Sequence of GluA1o-γ8 (GRIA1o-CACNG8 fusion construct; TARP γ8 dependent AMPA receptor) (P42261 other isoform, or with tags, fused parts or gaps): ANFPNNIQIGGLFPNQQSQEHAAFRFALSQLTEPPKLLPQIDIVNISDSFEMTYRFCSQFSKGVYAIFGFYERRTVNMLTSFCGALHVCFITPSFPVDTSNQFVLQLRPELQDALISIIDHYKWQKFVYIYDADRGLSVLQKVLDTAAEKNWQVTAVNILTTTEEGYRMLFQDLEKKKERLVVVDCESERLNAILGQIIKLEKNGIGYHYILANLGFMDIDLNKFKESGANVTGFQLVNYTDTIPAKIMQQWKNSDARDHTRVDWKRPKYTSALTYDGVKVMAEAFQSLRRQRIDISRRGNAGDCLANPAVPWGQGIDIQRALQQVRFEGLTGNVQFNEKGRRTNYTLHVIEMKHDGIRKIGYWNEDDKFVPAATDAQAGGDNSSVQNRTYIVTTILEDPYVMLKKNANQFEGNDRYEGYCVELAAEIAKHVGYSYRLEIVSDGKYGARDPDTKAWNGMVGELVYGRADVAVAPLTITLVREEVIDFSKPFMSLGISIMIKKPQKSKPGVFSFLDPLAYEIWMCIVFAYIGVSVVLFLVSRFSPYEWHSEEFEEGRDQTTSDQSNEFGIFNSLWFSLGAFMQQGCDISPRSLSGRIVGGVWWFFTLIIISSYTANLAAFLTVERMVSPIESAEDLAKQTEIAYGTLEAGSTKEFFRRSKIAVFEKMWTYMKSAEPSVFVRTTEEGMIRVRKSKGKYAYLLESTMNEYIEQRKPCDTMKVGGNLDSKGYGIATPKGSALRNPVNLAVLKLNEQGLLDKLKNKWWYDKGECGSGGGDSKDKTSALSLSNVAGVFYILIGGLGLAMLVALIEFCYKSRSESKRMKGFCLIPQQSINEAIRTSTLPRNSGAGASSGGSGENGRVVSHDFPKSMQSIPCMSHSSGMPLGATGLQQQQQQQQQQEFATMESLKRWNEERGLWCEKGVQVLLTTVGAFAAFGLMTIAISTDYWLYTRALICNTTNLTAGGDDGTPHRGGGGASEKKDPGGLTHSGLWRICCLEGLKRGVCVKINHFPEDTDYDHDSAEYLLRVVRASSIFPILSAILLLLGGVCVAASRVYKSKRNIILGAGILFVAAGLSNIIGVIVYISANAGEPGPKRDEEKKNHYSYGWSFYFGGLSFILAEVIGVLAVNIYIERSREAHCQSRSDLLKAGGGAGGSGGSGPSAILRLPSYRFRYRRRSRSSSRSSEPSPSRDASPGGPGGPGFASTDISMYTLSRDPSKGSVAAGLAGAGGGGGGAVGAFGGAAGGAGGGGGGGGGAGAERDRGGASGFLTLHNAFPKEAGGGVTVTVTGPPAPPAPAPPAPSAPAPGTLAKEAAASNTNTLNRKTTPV

Row | Structure (SMILES) | IC50
1 | CC(=O)N1CCN(c2nccn3c(-c4ccc(O)cc4)c(Cc4ccccc4)nc23)CC1 [Example 23, 1-[4-[2-Benzyl-3-(4-hydroxyphenyl)imidazo[1,2-a]pyrazin-8-yl]piperazin-1-yl]ethanone] | 25.1 nM
2 | O=C1Cc2cc(-c3c(-c4ccccc4)nn4c(N5CCOCC5)ncc(Br)c34)ccc2N1 [Example 207, 5-(4-Bromo-7-morpholino-2-phenyl-pyrazolo[1,5-c]pyrimidin-3-yl)indolin-2-one] | 0.398 nM
3 | CC(=O)N1CCN(c2nccn3c(-c4ccc5[nH]ncc5c4)c(Cc4ccccc4)nc23)CC1 [Example 18, 1-[4-[2-Benzyl-3-(1H-indazol-5-yl)imidazo[1,2-a]pyrazin-8-yl]piperazin-1-yl]ethanone] | 0.794 nM
4 | O=C1Cc2cc(-c3c(-c4ccccc4)nc4c(N5CC6(CC6)C5)nccn34)ccc2N1 [Example 80, 5-[8-(5-Azaspiro[2.3]hexan-5-yl)-2-phenyl-imidazo[1,2-a]pyrazin-3-yl]indolin-2-one] | 0.631 nM
5 | CC(=O)N[C@@H]1CCN(c2nccn3c(-c4ccc5[nH]c(=O)[nH]c5c4)c(-c4ccc(F)cc4)nc23)C1 [Example 100, N-[(3R)-1-[2-(4-Fluorophenyl)-3-(2-oxo-1,3-dihydrobenzimidazol-5-yl)imidazo[1,2-a]pyrazin-8-yl]pyrrolidin-3-yl]acetamide] | 12.6 nM
6 | CC(=O)NC1CCN(c2nccn3c(-c4ccc(O)cc4)c(-c4ccc(Cl)cc4)nc23)CC1 [Example 93, N-[1-[2-(4-Chlorophenyl)-3-(4-hydroxyphenyl)imidazo[1,2-a]pyrazin-8-yl]-4-piperidyl]acetamide] | 31.6 nM
7 | Oc1ccc(-c2c(-c3ccc(F)cc3)nc3c(N4CCCCC4)nccn23)cc1 [Example 9, 4-[2-(4-Fluorophenyl)-8-(1-piperidyl)imidazo[1,2-a]pyrazin-3-yl]phenol] | 200 nM
8 | Nc1nccn2c(-c3ccc4c(c3)CC(=O)N4)c(-c3ccc(F)cc3)nc12 [Example 248, 5-[8-Amino-2-(4-fluorophenyl)imidazo[1,2-a]pyrazin-3-yl]indolin-2-one] | 5010 nM
9 | O=C1Cc2cc(-c3c(-c4ccc(F)cc4)nc4c(N5CC(F)(F)C5)nccn34)ccc2N1 [Example 60, 5-[8-(3,3-Difluoroazetidin-1-yl)-2-(4-fluorophenyl)imidazo[1,2-a]pyrazin-3-yl]indolin-2-one] | 1.58 nM
10 | O=C1Cc2cc(-c3c(-c4ccncc4)nc4c(N5CC(F)C5)nccn34)ccc2N1 [Example 89, 5-[8-(3-Fluoroazetidin-1-yl)-2-(4-pyridyl)imidazo[1,2-a]pyrazin-3-yl]indolin-2-one] | 200 nM
11 | Oc1ccc(-c2c(-c3ccc(F)cc3)nc3c(N4CCCC(F)(F)C4)nccn23)cc1 [Example 29, 4-[8-(3,3-Difluoro-1-piperidyl)-2-(4-fluorophenyl)imidazo[1,2-a]pyrazin-3-yl]phenol] | 31.6 nM
12 | O=c1[nH]c2ccc(-c3c(-c4ccc(F)cc4)nc4c(N5CCOCC5)nccn34)cc2[nH]1 [Example 11, 5-[2-(4-Fluorophenyl)-8-morpholino-imidazo[1,2-a]pyrazin-3-yl]-1,3-dihydrobenzimidazol-2-one] | 0.398 nM
13 | O=C(Nc1ccccn1)c1nc2c(N3CCOCC3)nccn2c1-c1ccc2[nH]c(=O)[nH]c2c1 [Example 221, 8-Morpholino-3-(2-oxo-1,3-dihydrobenzimidazol-5-yl)-N-(2-pyridyl)imidazo[1,2-a]pyrazine-2-carboxamide] | 31.6 nM
14 | CC(C)(C)c1nn2cnc(C(F)(F)F)cc2c1-c1ccc2c(c1)CC(=O)N2 [Example 225, 5-[2-tert-Butyl-5-(trifluoromethyl)pyrazolo[1,5-c]pyrimidin-3-yl]indolin-2-one] | 501 nM
15 | O=C1Nc2ccc(-c3c(-c4ccc(F)cc4)nc4c(N5CCOCC5)nccn34)cc2CO1 [Example 124, 6-[2-(4-fluorophenyl)-8-morpholino-imidazo[1,2-a]pyrazin-3-yl]-1,4-dihydro-3,1-benzoxazin-2-one] | 7.94 nM
16 | O=C1Cc2cc(-c3c(-c4ccc(F)cc4)nn4c(N5CCC(F)CC5)nccc34)ccc2N1 [Example 190, 5-[2-(4-Fluorophenyl)-7-(4-fluoro-1-piperidyl)pyrazolo[1,5-c]pyrimidin-3-yl]indolin-2-one] | 0.2 nM
17 | COC1CCN(c2nccc3c(-c4ccc5c(c4)CC(=O)N5)c(-c4ccccc4)nn23)CC1 [Example 189, 5-[7-(4-Methoxy-1-piperidyl)-2-phenyl-pyrazolo[1,5-c]pyrimidin-3-yl]indolin-2-one] | 0.158 nM
18 | COC1CCN(c2nccn3c(-c4ccc5c(c4)CC(=O)N5)c(-c4ccc(F)cc4)nc23)CC1 [Example 72, 5-[2-(4-Fluorophenyl)-8-(4-methoxy-1-piperidyl)imidazo[1,2-a]pyrazin-3-yl]indolin-2-one] | 0.126 nM
19 | CC(=O)N[C@H]1CCN(c2nccn3c(-c4ccc5[nH]c(=O)[nH]c5c4)c(-c4ccc(F)cc4)nc23)C1 [Example 98, N-[(3S)-1-[2-(4-Fluorophenyl)-3-(2-oxo-1,3-dihydrobenzimidazol-5-yl)imidazo[1,2-a]pyrazin-8-yl]pyrrolidin-3-yl]acetamide] | 2.51 nM
20 | O=C1Cc2cc(-c3c(-c4ccc(F)cc4)nc4c(N5CCCC5)nccn34)ccc2N1 [Example 45, 5-[2-(4-Fluorophenyl)-8-pyrrolidin-1-yl-imidazo[1,2-a]pyrazin-3-yl]indolin-2-one] | 1 nM
21 | C[S+]([O-])c1nccn2c(-c3ccc4c(c3)CC(=O)N4)c(-c3ccc(F)cc3)nc12 (stereo not shown) [Example 128, 5-[2-(4-Fluorophenyl)-8-methylsulfinyl-imidazo[1,2-a]pyrazin-3-yl]indolin-2-one] | 631 nM
22 | O=c1[nH]c2ccc(-c3c(-c4ccc(F)cc4)nn4c(N5CCOCC5)nccc34)cc2o1 [Example 173, 6-[2-(4-Fluorophenyl)-7-morpholino-pyrazolo[1,5-c]pyrimidin-3-yl]-3H-1,3-benzoxazol-2-one] | 1.26 nM

The next lines start with the values.

Row | IC50 | Structure (SMILES)
23 | 1.26 nM | O=C1CN(c2nccc3c(-c4ccc5c(c4)CC(=O)N5)c(-c4ccc(F)cc4)nn23)CCN1 [Example 168, 5-[2-(4-Fluorophenyl)-7-(3-oxopiperazin-1-yl)pyrazolo[1,5-c]pyrimidin-3-yl]indolin-2-one]
24 | 158 nM | CC(C)c1nn2c(N3CCOCC3)ncc(F)c2c1-c1ccc2[nH]ncc2c1 [Example 236, 4-[4-Fluoro-3-(1H-indazol-5-yl)-2-isopropyl-pyrazolo[1,5-c]pyrimidin-7-yl]morpholine]
25 | 631 nM | CCCNC(=O)c1nc2c(N3CCOCC3)nccn2c1-c1ccc(O)cc1 [Example 148, 3-(4-Hydroxyphenyl)-8-morpholino-N-propyl-imidazo[1,2-a]pyrazine-2-carboxamide]
26 | 7.94 nM | Fc1ccc(-c2nc3c(N4CC5(COC5)C4)nccn3c2-c2ccc3[nH]ncc3c2)cc1 [Example 25, 2-[2-(4-Fluorophenyl)-3-(1H-indazol-5-yl)imidazo[1,2-a]pyrazin-8-yl]-6-oxa-2-azaspiro[3.3]heptane]
27 | 3.98 nM | Cc1cnc(N2CCOCC2)n2nc(C(C)C)c(-c3ccc4[nH]c(=O)sc4c3)c12 [Example 243, 6-(2-Isopropyl-4-methyl-7-morpholino-pyrazolo[1,5-c]pyrimidin-3-yl)-3H-1,3-benzothiazol-2-one]
28 | 398 nM | CC(C)c1nn2c(N3CCOCC3)nccc2c1-c1ccc2[nH]ncc2c1 [Example 238, 4-[3-(1H-Indazol-5-yl)-2-isopropyl-pyrazolo[1,5-c]pyrimidin-7-yl]morpholine]
29 | 1.58 nM | O=c1[nH]c2ccc(-c3c(Cc4ccccc4)nc4c(N5CCOCC5)nccn34)cc2[nH]1 [Example 22, 5-(2-Benzyl-8-morpholino-imidazo[1,2-a]pyrazin-3-yl)-1,3-dihydrobenzimidazol-2-one]
30 | 15.8 nM | Fc1ccc(-c2nc3c(N4CCOCC4)nccn3c2-c2ccc3[nH]ccc3c2)cc1 [Example 16, 4-[2-(4-Fluorophenyl)-3-(1H-indol-5-yl)imidazo[1,2-a]pyrazin-8-yl]morpholine]
31 | 0.794 nM | CC(C)(C)OC(=O)N1CCN(c2ncc(Br)n3c(-c4ccc5c(c4)CC(=O)N5)c(Cc4ccccc4)nc23)CC1 [Example 112, tert-Butyl 4-(2-benzyl-5-bromo-3-(2-oxoindolin-5-yl)imidazo[1,2-a]pyrazin-8-yl)piperazine-1-carboxylate]
32 | 2.51 nM | CO[C@@H]1CCN(c2nccc3c(-c4ccc5c(c4)CC(=O)N5)c(-c4ccccc4)nn23)C1 [Example 202, 5-[7-[(3R)-3-Methoxypyrrolidin-1-yl]-2-phenyl-pyrazolo[1,5-c]pyrimidin-3-yl]indolin-2-one]
33 | 1.58 nM | CN(C)c1nccc2c(-c3ccc4c(c3)CC(=O)N4)c(-c3ccc(F)cc3)nn12 [Example 169, 5-[7-(Dimethylamino)-2-(4-fluorophenyl)pyrazolo[1,5-c]pyrimidin-3-yl]indolin-2-one]
34 | 1 nM | O=C1Cc2cc(-c3c(-c4ccc(F)cc4)nc4c(N5CC(O)(C(F)(F)F)C5)nccn34)ccc2N1 [Example 69, 5-[2-(4-Fluorophenyl)-8-[3-hydroxy-3-(trifluoromethyl)azetidin-1-yl]imidazo[1,2-a]pyrazin-3-yl]indolin-2-one]
35 | 158 nM | Oc1ccc(-c2c(-c3ccc(F)cc3)nc3c(N4CCC(F)(F)CC4)nccn23)cc1 [Example 28, 4-[8-(4,4-Difluoro-1-piperidyl)-2-(4-fluorophenyl)imidazo[1,2-a]pyrazin-3-yl]phenol]
36 | 25.1 nM | CC(=O)N1CCCN(c2nccn3c(-c4ccc(O)cc4)c(-c4ccc(Cl)cc4)nc23)CC1 [Example 92, 1-[4-[2-(4-Chlorophenyl)-3-(4-hydroxyphenyl)imidazo[1,2-a]pyrazin-8-yl]-1,4-diazepan-1-yl]ethanone]
37 | 631 nM | Nc1nc2cc(-c3c(-c4ccc(F)cc4)nc4c(N5CCOCC5)nccn34)ccc2[nH]1 [Example 121, 5-[2-(4-Fluorophenyl)-8-morpholino-imidazo[1,2-a]pyrazin-3-yl]-1H-benzimidazol-2-amine]
